Laboratory results taken from the supplement of paper PMC8671470.

Key:
Conditions in all cases: 72 h
[1] = tested on: SHI-1; test: cell viability (% survival relative to DMSO control, bortezomib = 0%); higher = less cytotoxic
Procedure, shortened: (§1)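 Reported values are percent survival from duplicate wells, averaged. Fifteen myeloid leukaemia cell lines were treated in 384-well plates with compounds at 1, 10, 100, 1000 or 10000 nM for 72 h at 37 °C in 5% CO2. Signals from CellTiter-Glo luminescence were scaled with vehicle as 100% and a 10 µM positive control as 0%.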

[2] = tested on: KCL-22; test: as above
Procedure, shortened: as §1

[3] = tested on: MOLM-13; test: as above
Procedure, shortened: as §1

[4] = tested on: KU-812; test: as above
Procedure, shortened: as §1

[5] = tested on: HL-60; test: as above
Procedure, shortened: as §1

[6] = tested on: BV-173; test: as above
Procedure, shortened: as §1

[7] = tested on: MV4-11; test: as above
Procedure, shortened: as §1

[8] = tested on: NOMO-1; test: as above
Procedure, shortened: as §1

[9] = tested on: ML-2; test: as above
Procedure, shortened: as §1

[10] = tested on: KG-1; test: as above
Procedure, shortened: as §1

[11] = tested on: LAMA-84; test: as above
Procedure, shortened: as §1

[12] = tested on: HEL; test: as above
Procedure, shortened: as §1

[13] = tested on: K-562; test: as above
Procedure, shortened: as §1

[14] = tested on: Mono-Mac-6; test: as above
Procedure, shortened: as §1

[15] = tested on: THP-1; test: as above
Procedure, shortened: as §1

[16] = tested on: SHI-1
Procedure, shortened: (§2)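 Dose–response data were fitted with a four-parameter log-logistic model. They came from fifteen myeloid leukaemia lines treated in duplicate with five tenfold doses from 1 to 10,000 nM for 72 h at 37 °C with 5% CO2, with ATP viability normalised to vehicle and to a positive control at 10 µM. The IC50 was derived from these fits.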

[17] = tested on: KCL-22
Procedure, shortened: as §2

[18] = tested on: MOLM-13
Procedure, shortened: as §2

[19] = tested on: KU-812
Procedure, shortened: as §2

[20] = tested on: HL-60
Procedure, shortened: as §2

[21] = tested on: BV-173
Procedure, shortened: as §2

[22] = tested on: MV4-11
Procedure, shortened: as §2

[23] = tested on: NOMO-1
Procedure, shortened: as §2

[24] = tested on: ML-2
Procedure, shortened: as §2

[25] = tested on: KG-1
Procedure, shortened: as §2

[26] = tested on: LAMA-84
Procedure, shortened: as §2

[27] = tested on: HEL
Procedure, shortened: as §2

[28] = tested on: K-562
Procedure, shortened: as §2

[29] = tested on: Mono-Mac-6
Procedure, shortened: as §2

[30] = tested on: THP-1
Procedure, shortened: as §2

O=c1[nH]c(=O)n([C@H]2C[C@H](O)[C@@H](CO)O2)cc1I [Idoxuridine]
cell viability [%]
Conditions	1 nM	10 nM	100 nM	1000 nM	10000 nM
[1]	102	99.6	99.3	95.2	60.3
[2]	103	96.7	101	48.9	26.3
[3]	116	91.2	94.1	83.5	32.1
[4]	92.9	95.9	102	88.6	66.5
[5]	113	105	102	95	84
[6]	102	86.7	97.6	15.6	1.22
[7]	103	89.2	92.6	63.6	21.7
[8]	102	92.2	97.8	95.3	84.8
[9]	98.1	92.4	105	83.4	28.2
[10]	101	108	105	84.1	63.3
[11]	102	88.8	103	87	47.1
[12]	93.8	90.5	92	59.7	36.1
[13]	85.6	102	99.3	73.3	47.1
[14]	96	91.4	93.5	76	52.1
[15]	95.4	100	99.6	104	90

Conditions	IC50 (cell viability) [µM]
[16]	> 10
[17]	0.755
[18]	4.76
[19]	> 10
[20]	> 10
[21]	0.464
[22]	1.63
[23]	> 10
[24]	2.51
[25]	> 10
[26]	5.59
[27]	1.47
[28]	4.34
[29]	6.63
[30]	> 10

OCCN1C[C@H](O)[C@@H](O)[C@H](O)[C@H]1CO [Miglitol]
cell viability [%]
Conditions	1 nM	10 nM	100 nM	1000 nM	10000 nM
[1]	102	109	105	92.8	103
[2]	91.5	108	96.6	95.9	106
[3]	92.1	91.3	93	123	99.1
[4]	101	103	86.9	98.3	96
[5]	86.9	95.7	93.1	105	87.2
[6]	90.6	110	89.7	94.6	105
[7]	102	97	90.4	106	106
[8]	98.2	102	100	93.7	98.5
[9]	95.4	104	89.3	96	105
[10]	101	95.7	91.9	94.7	101
[11]	97	97.8	101	98.5	93.6
[12]	107	101	86.5	96.7	101
[13]	97.8	98.5	83.5	108	102
[14]	106	102	98.1	91.3	99.1
[15]	102	106	100	95.9	101

Conditions	IC50 (cell viability) [µM]
[16]	> 10
[17]	> 10
[18]	> 10
[19]	> 10
[20]	> 10
[21]	> 10
[22]	> 10
[23]	> 10
[24]	> 10
[25]	> 10
[26]	> 10
[27]	> 10
[28]	> 10
[29]	> 10
[30]	> 10

COc1ccc2c(c1)c(CC(=O)O)c(C)n2C(=O)c1ccc(Cl)cc1 [Indomethacine]
cell viability [%]
Conditions	1 nM	10 nM	100 nM	1000 nM	10000 nM
[1]	120	95.3	99	94.2	94.3
[2]	113	84	96	110	102
[3]	105	93.7	98.2	108	94.5
[4]	100	101	95.6	96.4	80
[5]	124	104	100	84.6	147
[6]	89.5	94.1	105	112	81.8
[7]	86.9	82.1	102	95.3	92.2
[8]	98.3	107	100	110	95.7
[9]	108	98.3	98.4	90.4	94.1
[10]	110	106	98	99.3	97.6
[11]	86.4	98.5	92.9	107	91.5
[12]	109	92.8	94.3	92.7	95.5
[13]	95.2	101	96	103	90.4
[14]	97.9	93.8	99.8	112	92.3
[15]	100	98.8	105	110	97.8

Conditions	IC50 (cell viability) [µM]
[16]	> 10
[17]	> 10
[18]	> 10
[19]	> 10
[20]	> 10
[21]	> 10
[22]	> 10
[23]	> 10
[24]	> 10
[25]	> 10
[26]	> 10
[27]	> 10
[28]	> 10
[29]	> 10
[30]	> 10

NS(=O)(=O)c1ccc(S(=O)(=O)Nc2cccc3c(Cl)c[nH]c23)cc1 [Indisulam]
cell viability [%]
Conditions	1 nM	10 nM	100 nM	1000 nM	10000 nM
[1]	96.8	101	97.4	65.2	26.8
[2]	102	104	87.4	58.6	19
[3]	122	102	97.8	32.6	7.24
[4]	102	99.1	108	29.9	13.7
[5]	107	107	85.8	97.2	37.1
[6]	108	87.3	110	46.6	9.34
[7]	99.4	84.3	56.2	0.62	0.0378
[8]	102	98.4	105	63.2	24.8
[9]	99.1	104	97.9	35.2	3.51
[10]	139	129	173	50.5	15.5
[11]	94.3	89	111	55.2	21.9
[12]	103	98.1	95.8	95.9	34.7
[13]	113	101	89.2	65.4	36.7
[14]	101	95.3	80.3	48.2	11.1
[15]	103	94.5	112	94.3	71.1

Conditions	IC50 (cell viability) [µM]
[16]	1.28
[17]	1.08
[18]	0.619
[19]	0.54
[20]	7.32
[21]	0.856
[22]	0.128
[23]	1.09
[24]	0.703
[25]	0.932
[26]	0.918
[27]	7
[28]	1.43
[29]	0.796
[30]	> 10

c1ccc2c(c1)SCc1c-2[nH]c2ccccc12
cell viability [%]
Conditions	1 nM	10 nM	100 nM	1000 nM	10000 nM
[1]	101	96	89.1	84.7	3.75
[2]	96.1	93.2	100	80.9	1.24
[3]	99.2	87	100	78.6	23.9
[4]	99.6	110	105	95.3	0.3
[5]	100	95.7	102	83	23.4
[6]	98.6	113	114	27.6	-0.875
[7]	101	101	111	52.8	-0.521
[8]	97	107	108	98.2	0.816
[9]	106	110	89.8	69	-1.13
[10]	104	102	125	34.7	-0.763
[11]	106	103	111	109	16.6
[12]	106	102	94.6	94.9	7
[13]	100	100	103	108	12
[14]	97.8	105	103	95.3	-0.27
[15]	105	100	106	93.4	33.6

Conditions	IC50 (cell viability) [µM]
[16]	2.6
[17]	2.18
[18]	1.97
[19]	2.92
[20]	2
[21]	0.646
[22]	1.06
[23]	3.12
[24]	1.48
[25]	0.76
[26]	4.96
[27]	3.3
[28]	4.42
[29]	2.89
[30]	4.04

CC(C)(CS(=O)(=O)[O-])NC(=O)CC[N+](C)(C)CCO
cell viability [%]
Conditions	1 nM	10 nM	100 nM	1000 nM	10000 nM
[1]	107	115	96.8	91.8	126
[2]	107	103	94.1	88.8	117
[3]	121	112	97.2	82.3	117
[4]	99.7	98.6	99.3	89.4	107
[5]	116	118	97.8	78.4	97.8
[6]	88.4	97.7	91.6	91.3	113
[7]	104	101	99.8	95.6	114
[8]	94.8	102	96	94.3	101
[9]	95.4	109	89.4	88.9	115
[10]	97.4	114	93.6	94.4	118
[11]	88.8	96.6	100	91.3	106
[12]	101	106	93.8	98.8	104
[13]	108	88.5	105	97.8	105
[14]	86.8	105	90.1	91.6	105
[15]	101	102	99.5	93.2	120

Conditions	IC50 (cell viability) [µM]
[16]	> 10
[17]	> 10
[18]	> 10
[19]	> 10
[20]	> 10
[21]	> 10
[22]	> 10
[23]	> 10
[24]	> 10
[25]	> 10
[26]	> 10
[27]	> 10
[28]	> 10
[29]	> 10
[30]	> 10
